# Data published in publication PMC10353187, “Discovery of a new potent oxindole multi-kinase inhibitor among a series of designed 3-alkenyl-oxindoles with ancillary carbonic anhydrase inhibitory activity as antiproliferative agents” (BMC Chemistry, 2023).
# Like-named read-outs stand apart in the source and are kept apart here.
# Tests used:
# [1] = tested on: ACHN; experiment: NCI-60 single-dose antiproliferative assay (SRB); format: cell-based; conditions: Homo sapiens, 10 μM single dose, Renal cancer, read-out: Cell Growth inhibition Percent
# Procedure: (§1) From the newly synthesized compounds, eleven compounds (4c, 4d, 5, 9a, 9b, 11a, 11b, 13b, 13c, 15b, and 15c) were selected by the National Cancer Institute (NCI) Developmental Therapeutics Program (DTP), Bethesda, Maryland, USA for the in vitro anti-proliferative activity evaluation. The selected compounds were examined at 10 μM dose against the NCI 60-cell line panel. This panel consists of nine cell line groups of leukemia, non-small cell lung carcinoma (NSCLC), melanoma, colon, CNS, ovarian, renal, prostate, and breast cancers. The results are reported as mean-graph of the percent growth relative to control and presented as percentage growth inhibition (GI%), furthermore, mean GI% of each compound over all panel cell lines was calculated (Table 1; Additional file 1; S3: In vitro biological activity).
# (§2) From the newly synthesized compounds, eleven compounds were selected by the National Cancer Institute (NCI) Developmental Therapeutics Program (DTP), Bethesda, Maryland, USA for the in vitro anti-proliferative activity evaluation (For further details see supplementary materials).
# (§3) NCI In-vitro Cancer Screening is a two-phase procedure that starts with the assessment of all compounds against the sixty NCI cell line panel depicting leukemia, NSCLC, CNS cancer, melanoma, prostate cancer, breast cancer, renal cancer, colon cancer and ovarian cancer cell lines at a single point of 10μM. The output from the single-dose screen is reportable as a mean graph.
# (§4) The human tumor cell lines of the cancer screening panel were grown in RPMI 1640 medium containing 5% fetal bovine serum and 2 mM L-glutamine. For a typical screening experiment, cells were inoculated into 96 well microtiter plates in […] at plating densities ranging from 5000 to 40,000 cells/well depending on the doubling time of individual cell lines. After cell inoculation, the microtiter plates were incubated at 37 °C, 5% CO2, 95% air and 100% relative humidity for 24 h prior to addition of experimental drugs. After 24 h, two plates of each cell line were fixed in situ with trichloroacetic acid (TCA), to represent a measurement of the cell population for each cell line at the time of drug addition (Tz). Experimental drugs were solubilized in dimethyl sulfoxide at 400-fold the desired final maximum test concentration and stored frozen prior to use. At the time of drug addition, an aliquot of frozen concentrate was thawed and diluted to twice the desired final maximum test concentration with complete medium containing 50 µg/ml gentamicin. Aliquot of 100 µl of the drug dilution was added to the appropriate microtiter wells already containing 100 µl of medium, resulting in the required final drug concentration (10 µM). Triplicate wells were prepared for each individual dose. Following drug addition, the plates were incubated for an additional 48 h at 37 °C, 5% CO2, 95% air, and 100% relative humidity. For adherent cells, the assay was terminated by the addition of cold TCA. Cells were fixed in situ by the gentle addition of 50 µl of cold 50% (w/v) TCA (final concentration, 10% TCA) and incubated for 60 min at 4 °C. The supernatant was discarded, and the plates were washed five times with tap water and air dried. Sulforhodamine B (SRB) solution (100 µl) at 0.4% (w/v) in 1% acetic acid was added to each well, and plates were incubated for 10 min at room temperature. After staining, unbound dye was removed by washing five times with 1% acetic acid and the plates were air dried. Bound stain was subsequently solubilized with 10 mM trizma base, and the absorbance was read on an automated plate reader at a wavelength of 515 nm. For suspension cells, the methodology was the same except that the assay was terminated by fixing settled cells at the bottom of the wells by gently adding 50 µl of 80% TCA (final concentration, 16% TCA). […]
# [2] = tested on: CAKI-1; experiment: NCI-60 single-dose antiproliferative assay (SRB); format: cell-based; conditions: Homo sapiens; 10 μM single dose; CAKI-1, Renal cancer; read-out: Cell Growth inhibition Percent
# Procedure: as §1, §2, §3, §4
# [3] = tested on: HOP-62; experiment: NCI-60 single-dose antiproliferative assay (SRB); format: cell-based; conditions: Homo sapiens; 10 μM single dose; HOP-62, Non-small cell lung cancer; read-out: Cell Growth inhibition Percent
# Procedure: as §1, §2, §3, §4
# [4] = tested on: HOP-92; experiment: NCI-60 single-dose antiproliferative assay (SRB); format: cell-based; conditions: Homo sapiens; 10 μM single dose; HOP-92, Non-small cell lung cancer; read-out: Cell Growth inhibition Percent
# Procedure: as §1, §2, §3, §4
# [5] = tested on: MCF7; experiment: NCI-60 single-dose antiproliferative assay (SRB); format: cell-based; conditions: Homo sapiens; 10 μM single dose; MCF7, Breast cancer; read-out: Cell Growth inhibition Percent
# Procedure: as §1, §2, §3, §4
# [6] = tested on: NCI-H522; experiment: NCI-60 single-dose antiproliferative assay (SRB); format: cell-based; conditions: Homo sapiens; 10 μM single dose; NCI-H522, Non-small cell lung cancer; read-out: Cell Growth inhibition Percent
# Procedure: as §1, §2, §3, §4
# [7] = tested on: OVCAR-8; experiment: NCI-60 single-dose antiproliferative assay (SRB); format: cell-based; conditions: Homo sapiens; 10 μM single dose; OVCAR-8, Ovarian Cancer; read-out: Cell Growth inhibition Percent
# Procedure: as §1, §2, §3, §4
# [8] = tested on: SNB-75; experiment: NCI-60 single-dose antiproliferative assay (SRB); format: cell-based; conditions: Homo sapiens; 10 μM single dose; SNB-75, CNS cancer; read-out: Cell Growth inhibition Percent
# Procedure: as §1, §2, §3, §4
# [9] = tested on: UO-31; experiment: NCI-60 single-dose antiproliferative assay (SRB); format: cell-based, human; conditions: Homo sapiens, UO-31, 10 μM single dose; UO-31, Renal cancer; read-out: Cell Growth inhibition Percent
# Procedure: as §1, §2, §3, §4
# [10] = target: hCA I (Homo sapiens, UniProt P00915); experiment: Stopped flow CO2 hydrase assay
# [11] = target: hCA II (Homo sapiens, UniProt P00918); experiment: Stopped flow CO2 hydrase assay
# [12] = target: T1, hCA IX (Homo sapiens, UniProt Q16790); experiment: Stopped flow CO2 hydrase assay
# [13] = target: T2, hCA XII (Homo sapiens, UniProt O43570); experiment: Stopped flow CO2 hydrase assay
# [14] = tested on: 786-0; experiment: NCI-60 single-dose antiproliferative assay (SRB); format: cell-based; conditions: Homo sapiens; 10 μM single dose; 786-0, Renal cancer; read-out: Cell Growth inhibition Percent
# Procedure: as §1, §2, §3, §4
# [15] = tested on: A498; experiment: NCI-60 single-dose antiproliferative assay (SRB); format: cell-based; conditions: Homo sapiens; 10 μM single dose; A498, Renal cancer; read-out: Cell Growth inhibition Percent
# Procedure: as §1, §2, §3, §4
# [16] = tested on: HL-60(TB); experiment: NCI-60 single-dose antiproliferative assay (SRB); format: cell-based; conditions: Homo sapiens, 10 μM single dose, Leukemia, read-out: Cell Growth inhibition Percent
# Procedure: as §1, §2, §3, §4
# [17] = tested on: K-562; experiment: NCI-60 single-dose antiproliferative assay (SRB); format: cell-based; conditions: Homo sapiens, K562; 10 μM single dose; K-562, Leukemia; read-out: Cell Growth inhibition Percent
# Procedure: as §1, §2, §3, §4
# [18] = tested on: KM12; experiment: NCI-60 single-dose antiproliferative assay (SRB); format: cell-based; conditions: Homo sapiens; 10 μM single dose; KM12, Colon cancer; read-out: Cell Growth inhibition Percent
# Procedure: as §1, §2, §3, §4
# [19] = tested on: MDA-MB-231/ATCC; experiment: NCI-60 single-dose antiproliferative assay (SRB); format: cell-based; conditions: Homo sapiens, 10 μM single dose, Breast cancer, read-out: Cell Growth inhibition Percent
# Procedure: as §1, §2, §3, §4
# [20] = tested on: NCI-H23; experiment: NCI-60 single-dose antiproliferative assay (SRB); format: cell-based; conditions: Homo sapiens; 10 μM single dose; NCI-H23, Non-small cell lung cancer; read-out: Cell Growth inhibition Percent
# Procedure: as §1, §2, §3, §4
# [21] = tested on: RPMI-8226; experiment: NCI-60 single-dose antiproliferative assay (SRB); format: cell-based; conditions: Homo sapiens; 10 μM single dose; RPMI-8226, Leukemia; read-out: Cell Growth inhibition Percent
# Procedure: as §1, §2, §3, §4
# [22] = tested on: SK-MEL-5; experiment: NCI-60 single-dose antiproliferative assay (SRB); format: cell-based; conditions: Homo sapiens; 10 μM single dose; SK-MEL-5, Melanoma; read-out: Cell Growth inhibition Percent
# Procedure: as §1, §2, §3, §4
# [23] = tested on: SN12C; experiment: NCI-60 single-dose antiproliferative assay (SRB); format: cell-based; conditions: Homo sapiens, 10 μM single dose, Renal cancer, read-out: Cell Growth inhibition Percent
# Procedure: as §1, §2, §3, §4
# [24] = tested on: SR; experiment: NCI-60 single-dose antiproliferative assay (SRB); format: cell-based; conditions: Homo sapiens, 10 μM single dose, Leukemia, read-out: Cell Growth inhibition Percent
# Procedure: as §1, §2, §3, §4
# [25] = tested on: T-47D; experiment: NCI-60 single-dose antiproliferative assay (SRB); format: cell-based; conditions: Homo sapiens, T47D, 10 μM single dose, Breast cancer, read-out: Cell Growth inhibition Percent
# Procedure: as §1, §2, §3, §4
# [26] = tested on: VEGFRI; conditions: cited from earlier work
# [27] = tested on: VEGFRII; conditions: cited from earlier work
# [28] = tested on: VEGFRIII; conditions: cited from earlier work
# [29] = tested on: FGFRI; conditions: cited from earlier work
# [30] = tested on: FGFRII; conditions: cited from earlier work
# [31] = tested on: PDGFR α; conditions: cited from earlier work
# [32] = tested on: PDGF; conditions: Fig. 2, reported multi-kinase inhibitors; cited from earlier work
# [33] = tested on: PDGFR β; conditions: Fig. 2, reported multi-kinase inhibitors; read-out: PDGFB IC50; cited from earlier work
# [34] = Fig. 2; read-out: cytotoxicity average IC50; cited from earlier work
# [35] = tested on: VEGF; conditions: Fig. 2, reported multi-kinase inhibitors; cited from earlier work
# [36] = target: T1, hCA IX; design: made in house; conditions: reported CAIs, Fig. 1; cited from earlier work
# [37] = target: T2, hCA XII; design: made in house; conditions: reported CAIs, Fig. 1; cited from earlier work
# T2 sequence (O43570 25-354): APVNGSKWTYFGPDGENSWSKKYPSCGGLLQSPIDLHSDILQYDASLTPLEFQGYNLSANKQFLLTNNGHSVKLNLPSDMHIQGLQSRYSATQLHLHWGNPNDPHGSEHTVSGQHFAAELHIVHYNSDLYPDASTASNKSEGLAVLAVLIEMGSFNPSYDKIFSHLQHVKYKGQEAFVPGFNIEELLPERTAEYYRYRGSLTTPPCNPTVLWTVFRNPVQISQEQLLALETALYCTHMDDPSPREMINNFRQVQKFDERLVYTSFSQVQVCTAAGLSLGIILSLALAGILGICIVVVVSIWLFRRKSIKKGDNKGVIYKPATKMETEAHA
# Sequence of hCA I (P00915 whole entry): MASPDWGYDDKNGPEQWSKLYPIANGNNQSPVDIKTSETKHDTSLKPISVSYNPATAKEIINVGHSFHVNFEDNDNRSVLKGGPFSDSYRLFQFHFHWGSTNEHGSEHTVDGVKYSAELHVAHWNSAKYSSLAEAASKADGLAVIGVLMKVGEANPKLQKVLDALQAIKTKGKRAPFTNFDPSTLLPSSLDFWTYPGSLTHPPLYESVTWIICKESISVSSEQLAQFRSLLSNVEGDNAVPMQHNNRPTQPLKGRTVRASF
compound,measurement,setting,value
"NS(=O)(=O)c1ccc(NC(=O)c2ccc(NC=C3C(=O)Nc4ccccc43)cc2)cc1 [Compound 9a, 4-{[(2-Oxoindolin-3-ylidene)methyl]amino}-N-(4-sulfamoylphenyl)benzamide]",inhibition at 10 µM,[1],1.9%
same,inhibition at 10 µM,[2],8.65%
same,inhibition at 10 µM,[3],2.73%
same,inhibition at 10 µM,[4],6.83%
same,inhibition at 10 µM,[5],6.01%
same,inhibition at 10 µM,[6],5.55%
same,inhibition at 10 µM,[7],0.63%
same,inhibition at 10 µM,[8],4.88%
same,inhibition at 10 µM,[9],18%
same,Ki,[10],0.332 µM
same,Ki,[11],0.313 µM
same,Ki,[12],0.0688 µM
same,Selectivity ratio I/IX,[12]; Ki hCA I / Ki hCA IX,4.83
same,Selectivity ratio II/IX,[12]; Ki hCA II / Ki hCA IX,4.55
same,Ki,[13],0.0594 µM
same,Selectivity ratio I/XII,[13]; Ki hCA I / Ki hCA XII,5.59
same,Selectivity ratio II/XII,[13]; Ki hCA II / Ki hCA XII,5.27
"O=C1Nc2ccccc2C1=CNc1ccc(C(=O)C=CNc2ccc(S(=O)(=O)Nc3ncccn3)cc2)cc1 [Compound 13b, 4-{[3-Oxo-3-(4-{[(2-oxoindolin-3-ylidene)methyl]amino}phenyl)prop-1-en-1-yl]amino}-N-(pyrimidin-2-yl)benzenesulfonamide]",inhibition at 10 µM,[14],3.85%
same,inhibition at 10 µM,[15],1.46%
same,inhibition at 10 µM,[2],5.62%
same,inhibition at 10 µM,[16],0.37%
same,inhibition at 10 µM,[4],6.38%
same,inhibition at 10 µM,[17],2.89%
same,inhibition at 10 µM,[18],62.7%
same,inhibition at 10 µM,[5],12.6%
same,inhibition at 10 µM,[19],0.12%
same,inhibition at 10 µM,[20],3.53%
same,inhibition at 10 µM,[6],1.35%
same,inhibition at 10 µM,[21],13.6%
same,inhibition at 10 µM,[22],1.85%
same,inhibition at 10 µM,[23],1.75%
same,inhibition at 10 µM,[24],17.9%
same,inhibition at 10 µM,[25],6.91%
same,inhibition at 10 µM,[9],7.6%
same,melting point,,290 to 294 °C
same,Ki,[10],> 10 µM
same,Ki,[11],> 10 µM
same,Ki,[12],> 10 µM
same,Ki,[13],> 10 µM
COC(=O)c1ccc2c(c1)NC(=O)/C2=C(\Nc1ccc(N(C)C(=O)CN2CCN(C)CC2)cc1)c1ccccc1 [Nintedanib],IC50,[26]; read-out: IC50 VEGFRI,0.034 µM
same,IC50,[27]; read-out: IC50 VEGFRII,0.013 µM
same,IC50,[28],0.013 µM
same,IC50,[29]; read-out: IC50 FGFRI,0.069 µM
same,IC50,[30],0.037 µM
same,IC50,[31],0.059 µM
same,IC50,[32],0.059 µM
CNC(=O)c1cc(Oc2ccc(NC(=O)Nc3ccc(Cl)c(C(F)(F)F)c3)c(F)c2)ccn1 [Regorafenib],IC50,"[26]; Fig. 2, reported multi-kinase inhibitors, read-out: VEGFI IC50",0.013 µM
same,IC50,"[27]; Fig. 2, reported multi-kinase inhibitors, read-out: VEGFII IC50",0.042 µM
same,IC50,[33],0.022 µM
CCN(CC)CCNC(=O)c1c(C)[nH]c(/C=C2\C(=O)Nc3ccc(F)cc32)c1C [Sunitinib],IC50,[34],8.11 µM
same,IC50,[32],0.002 µM
same,IC50,[35],0.08 µM
O=S(=O)(Nc1nc2ccc(Cl)cc2s1)c1ccc(F)cc1 [VI],Ki,[36],0.95 µM
same,Ki,[37],0.085 µM
O=C(O)c1cc(Sc2ccccn2)cc([N+](=O)[O-])c1 [V],Ki,[36],0.018 µM
same,Ki,[37],0.0821 µM
Cc1ccc(C(=O)Nc2ccc(CN3CCN(C)CC3)c(C(F)(F)F)c2)cc1C#Cc1cnc2cccnn12 [ponatinib],IC50,"[29]; FGFR-1, inhibitor co-crystallized in PDB ID: 4V01, ref 5 (supplement), read-out: IC50",0.0007 µM
